Test results reported in paper PMC7281150, “Inspired by Sea Urchins: Warburg Effect Mediated Selectivity of Novel Synthetic Non-Glycoside 1,4-Naphthoquinone-6S-Glucose Conjugates in Prostate Cancer” (Marine Drugs, 2020).
In brackets after ≈: the same amount, converted by molar mass. Where two headings read alike, the source gives them in different places.

Key:
[1] = tested on: human drug-resistant prostate cancer PC-3 cells; test: MTT cytotoxicity in PC-3 cells; format: cell-based; settings: for IC50: 24 h, read-out: IC50 (viability of PC-3 cells)
Protocol: (§1) Cell viability was determined by MTT assay. Cells were pre-incubated overnight in 96-well plates (6 × 10^3 cells/well in 100 μL/well). Then, the medium was replaced with fresh medium containing the determined compounds (100 μL/well), and cells were incubated for the indicated time. Next, 10 μL/well of (3-(4,5-dimethylthiazol-2-yl)-2,5-diphenyltetrazolium bromide) reagent were added. After 2–4 h of incubation, the media was aspirated and the plates were dried. Fifty microliters per well of DMSO were added to each well and the cell viability was measured using Infinite F200PRO reader (TECAN, Männedorf, Switzerland). Results were calculated by The GraphPad Prism software v. 7.05 (GraphPad Prism software Inc., La Jolla, CA, USA) and are represented as IC50 of the compounds against control cells treated with the solvent alone.

22Rv1 cells [2] = test: MTT cytotoxicity in 22Rv1 cells with or without N-acetyl-L-cysteine; format: cell-based, human; settings: without NaC, FBS- and glucose-free media, 48 h, read-out: IC50 (viability of 22Rv1 cells)
Protocol: as §1

PC-3 cells [3] = test: Glucose uptake assay (2-NBDG), plate reader-based measurement; format: cell-based, human; settings: PC-3, 24 h
Protocol: (§2) The effects of the synthesized substance on glucose uptake were evaluated using the Glucose Uptake Cell-Based Assay Kit (Cayman chemicals, Ann Arbor, MI, USA) and two different methods. (a) Plate reader-based measurement: PC-3 cells (12 × 10^3 cells/well) were seeded in two 96-well plates, incubated overnight, and treated with the investigated drugs in 100 µL/well of glucose-free 0.1% FBS/RPMI media for 24 h. Then, the 10 µL/well of either 2-NBDG solution (2-deoxy-2-[(7-nitro-2,1,3-benzoxadiazol-4-yl)amino]-D-glucose, 5 mg/mL, for glucose uptake measurements) or vehicle solution (for cell viability measurements) in glucose-free 0.1% FBS/RPMI media were added to each well. […] Then, for glucose uptake measurements, the 100 µL/well of PBS were added and the fluorescence was measured using Infinite F200PRO reader (TECAN, Männedorf, Switzerland); or, for the cell viability measurements, 100 µL/well of media containing MTS reagent were added to the cells and viability was measured as described before. Glucose uptake rate was normalized to the cell viability measured by MTS assay in order to measure the uptake rate exclusively in the viable cells. (b) FACS-based readout: The experiment was performed as described before. […] The plates were then incubated with 2-NBDG solution, the cells were harvested by trypsination, washed, stained with PI, and analyzed using a flow cytometry.

PC-3 cells [4] = test: Glucose uptake assay (2-NBDG), FACS-based readout; format: cell-based, human; settings: PC-3, 24 h
Protocol: as §2

PC-3 cells [5] = format: cell-based, human; settings: PC-3, zVAD 100 µM, 48 h
22Rv1 cells [6] = test: Analysis of cell cycle progression and DNA fragmentation (PI staining, FACS); format: cell-based, human; settings: 22Rv1, 48 h
Protocol: Cells (2 × 10^5 cells/well) were pre-incubated overnight in 6-well plates. Then, cells were treated with the substances in 2 mL of fresh culture media/well for 48 h. Cells were harvested by trypsination, fixed in 70% EtOH, stained with PI, and analyzed by FACS Calibur (BD Bioscience, San Jose, CA, USA). The results were quantified using BD Bioscience Cell Quest Pro v.5.2.1. software (BD Bioscience, San Jose, CA, USA). The sub-G1 population was considered to reflect apoptotic cells (containing fragmented DNA).

22Rv1 cells [7] = test: Western blotting of protein expression; format: cell-based, human; settings: for cleavage of caspase-3 (Western blotting) / p21 expression (Western blotting) / PARP cleavage (Western blotting): 22Rv1, 48 h; for PARP cleavage (Western blotting): concentrations close to IC50s
Protocol: (§3) Cells (10^6 cells/well) were seeded in Petri dishes (ø 6 cm) and incubated overnight. The cells were treated with the investigational drugs in fresh culture media (5 mL/dish) for 48 h. Then, cells were harvested by scratching and lysed in the lysis buffer (1% NP-40, 50 mM Tris-HCl (pH 7.6), 0.88% NaCl, 0.25% sodium cholate, 1 mM Na3VO4, 0.1 mM PMSF, protease inhibitors cocktail (cOmplete Mini EDTA-free EASYpacks, Roche, Mannheim, Germany)). Proteins were extracted and diluted with lysis buffer and loading dye, heated 5 min at 99 °C and subjected to electrophoresis in gradient Mini-PROTEAN® TGX Stain-Free^TM gels (Bio-Rad, Hercules, CA, USA). Proteins were transferred from gel to 0.2 µm pore PVDF membrane using Trans-Blot® Turbo^TM RTA Mini PVDF Trans kit (Bio-Rad) and Trans-Blot® Turbo^TM Blotting System (Bio-Rad) according to the manufactures protocol. The membrane was blocked (5% BSA in 0.05% Tween-20/TBS), treated with primary and secondary antibodies, and the signals were detected using the ECL chemiluminescence system (Thermo Scientific, Rockford, IL, USA). All procedures were performed according to the manufacturer′s protocols.

22Rv1 cells [8] = test: Analysis of intracellular ROS level (CM-H2DCFDA, FACS); format: cell-based, human; settings: 2 h
Protocol: Intracellular ROS levels were accessed using the ROS-sensitive CM-H2DCFDA reagent (Cat. No. C6827, Molecular probes, Invitrogen, Eugene, OR, USA). The experiment was performed as previously described with slight modifications. In brief, 22Rv1 cells (10^5 cells/well) were seeded in 12-well plates and incubated overnight. The media was changed with freshly made pre-warmed staining solution (4 µM CM-H2DCFDA/PBS, 0.5 mL/well) and incubated in the dark (37 °C, 5% CO2) for 30 min. Then, the staining solution was exchanged with 1 mL/well of pre-warmed PBS containing the investigated compounds or H2O2 (positive control) at the indicated concentrations and the cells were incubated for 2 h. Next, the cells were trypsinized, resuspended in pre-warmed PBS (200 µL/sample) and immediately analyzed by FACS according to the manufacture′s protocol.

22Rv1 cells [9] = test: Analysis of mitochondrial membrane potential (JC-1, FACS); format: cell-based, human
Protocol: The drop down of mitochondrial membrane potential (ΔΨm) was measured using staining with ΔΨm-sensitive JC-1 dye (5,5′,6,6′-Tetrachloro-1,1′,3,3′-tetraethyl-imidacarbocyanine iodide) and flow cytometry technique. Cells (10^5 cells/well) were seeded in 12-well plates and incubated overnight. […] The cells were trypsinized, pelleted, resuspended in 100 µL of 2 µM JC-1/PBS, incubated for 1 h (37 °C, 5% CO2, in the dark), and analyzed by flow cytometry technique.

22Rv1 cells [10] = test: Cell fractionation (mitochondrial, cytoplasmic, total) with Western blotting; format: cell-based, human; settings: 22Rv1, 48 h
Protocol: as §3
The separation of cellular nuclear, mitochondrial, and cytosolic fractions was performed using the Cell Fractionation Kit ab109719 (abcam, Cambridge, MA, USA). […]

[11] = tested on: five prostate cancer (LNCaP, 22Rv1, VCaP, PC-3, and DU145) vs. five non-cancer (PNT2, RWPE-1, HEK 293T, MRC-9, and HUVEC) cell lines; test: Mean MTT cytotoxicity in five prostate cancer vs. five non-cancer cell lines; format: cell-based, human; settings: 48 h
Protocol: as §1

[12] = tested on: human cancer HeLa S3 cells; parameters: method as in PMID 3437287; settings: cited from earlier work
[13] = glucose-containing media (+Glc, 2 g/L)

6-(1,2,3,4-Tetra-O-acetyl-6-deoxy-β-D-glucopyranos-6-ylthio)-5,8-dihydroxy-7-methyl-2,3-dimethoxy-1,4-naphthoquinone [SAB-13]
IC50 [1, 13]: 10.8 ± 1.7 µM | IC50 ([1]; glucose-free media (−Glc)): 5 ± 1.1 µM | higher cytotoxicity compared with SAB-14 ([1]; screening, MTT, 48 h): ~ 10 fold | IC50 (22Rv1 cells [2]): 2.3 ± 0.3 µM | glucose uptake (2-NBDG, plate reader), normalized to cell viability (PC-3 cells [3]): inhibition of glucose uptake | glucose uptake (2-NBDG, single cells by flow cytometry), normalized to cell viability (PC-3 cells [4]): inhibition of glucose uptake | effect of co-treatment with pan-caspase inhibitor zVAD on cytotoxic effects (PC-3 cells [5]): antagonized the cytotoxic effects | DNA fragmentation (sub-G1 peak) (22Rv1 cells [6]): DNA fragmentation | cell cycle progression (22Rv1 cells [6]): G2/M-cell cycle arrest | caspase-9 activation (cleaved caspase-9, Western blotting) (22Rv1 cells [7]; 22Rv1, 2 h): activated caspase-9 shortly after treatment | cleavage of caspase-3 (Western blotting) (22Rv1 cells [7]): cleavage of caspase-3 was observed | p21 expression (Western blotting) (22Rv1 cells [7]): upregulation of p21 | PARP cleavage (Western blotting) (22Rv1 cells [7]): PARP cleavage | ROS level (CM-H2DCFDA, FACS) (22Rv1 cells [8]; 22Rv1, 0.5 μM): 31.2±3.2% | cells containing depolarized mitochondria (JC-1) (22Rv1 cells [9]; 22Rv1, 2 μM, 2 h): 47.3±6.1% | cells containing depolarized mitochondria (JC-1) (22Rv1 cells [9]; 22Rv1, 2 μM, 48 h): 69.5±8.1% | redistribution of mitochondrial proteins (cytochrome C, AIF) to cytoplasm (22Rv1 cells [10]): release of cytotoxic mitochondrial proteins to cellular cytoplasm

6-(6-Deoxy-D-glucopyranos-6-ylthio)-5,8-dihydroxy-7-methyl-2,3-dimethoxy-1,4-naphthoquinone [SAB-14]
selectivity index (SI), IC50 (PNT2)/IC50 (PC-3) ([1]; MTT, 48 h): > 2 | IC50 [1, 13]: 22.6 ± 7.3 µM | IC50 ([1]; glucose-free media (−Glc)): 4.7 ± 1.4 µM | IC50 (22Rv1 cells [2]): 4.6 ± 2.9 µM | selectivity to prostate cancer cells vs. non-cancer lines (mean cytotoxicity) [11]: higher selectivity to the cancer cells | glucose uptake (2-NBDG, plate reader), normalized to cell viability (PC-3 cells [3]): inhibition of glucose uptake | glucose uptake (2-NBDG, single cells by flow cytometry), normalized to cell viability (PC-3 cells [4]): inhibition of glucose uptake | effect of co-treatment with pan-caspase inhibitor zVAD on cytotoxic effects (PC-3 cells [5]): antagonized the cytotoxic effects | DNA fragmentation (sub-G1 peak) (22Rv1 cells [6]): DNA fragmentation | cell cycle progression (22Rv1 cells [6]): G2/M-cell cycle arrest | cleavage of caspase-3 (Western blotting) (22Rv1 cells [7]): cleavage of caspase-3 was observed | p21 expression (Western blotting) (22Rv1 cells [7]): upregulation of p21 | PARP cleavage (Western blotting) (22Rv1 cells [7]): PARP cleavage | ROS level (CM-H2DCFDA, FACS) (22Rv1 cells [8]; 22Rv1, 5 μM): 9.9±0.4% | cells containing depolarized mitochondria (JC-1) (22Rv1 cells [9]; 22Rv1, 10 μM, 2 h): 20.4±3.6% | cells containing depolarized mitochondria (JC-1) (22Rv1 cells [9]; 22Rv1, 10 μM, 48 h): 47±1.0%

N#CC(C#N)=NNc1cccc(Cl)c1 [CCCP, 2-[2-(3-chlorophenyl)hydrazinylyidene]propanedinitrile, reference compound]
cells containing depolarized mitochondria (JC-1) (22Rv1 cells [9]; 22Rv1, 50 µM, 2 h): 94±0.3% | cells containing depolarized mitochondria (JC-1) (22Rv1 cells [9]; 22Rv1, 50 µM, 48 h): 92.1±1.8%

OO [H2O2, reference compound]
ROS level (CM-H2DCFDA, FACS) (22Rv1 cells [8]; 22Rv1, 200 μM): 68.4±1.5%

CC(=O)Oc1cccc2c1C(=O)C=C(SC[C@H]1O[C@@H](OC(C)=O)[C@H](OC(C)=O)[C@@H](OC(C)=O)[C@@H]1OC(C)=O)C2=O [SAB-25, 2-(1,2,3,4-Tetra-O-acetyl-6-deoxy-β-D-glucopyranos-6-ylthio)-5-acetoxy-1,4-naphthoquinone]
melting point: 172 to 175 °C

COC1=C(OC)C(=O)c2c(O)c(OC)cc(O)c2C1=O [tricrozarin B]
IC50 (colony formation) [12]: 7 ng/mL (≈ 0.025 µM)
